Results on two compounds are retold here after BindingDB's records for doi:10.1016/j.bmcl.2015.04.045 (Chungbuk National University, 2015).

This assay addresses T1, Pancreatic triacylglycerol lipase (Sus scrofa, UniProt P00591).
T1 sequence (P00591 whole entry): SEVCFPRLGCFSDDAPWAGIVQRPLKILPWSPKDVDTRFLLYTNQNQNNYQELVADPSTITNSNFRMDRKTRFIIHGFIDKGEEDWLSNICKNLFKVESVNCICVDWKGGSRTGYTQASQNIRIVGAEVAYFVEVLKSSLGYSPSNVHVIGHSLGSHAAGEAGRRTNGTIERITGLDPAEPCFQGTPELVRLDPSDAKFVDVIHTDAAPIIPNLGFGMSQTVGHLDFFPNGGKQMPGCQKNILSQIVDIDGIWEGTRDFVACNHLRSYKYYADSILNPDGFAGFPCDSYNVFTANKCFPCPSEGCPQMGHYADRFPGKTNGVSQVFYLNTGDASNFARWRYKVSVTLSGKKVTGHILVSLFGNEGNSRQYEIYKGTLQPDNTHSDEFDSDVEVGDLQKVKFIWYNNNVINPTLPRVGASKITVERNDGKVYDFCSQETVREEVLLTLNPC
As to the kind of experiment: Inhibition of porcine pancreatic lipase using p-nitrophenylbutyrate as substrate assessed as formation of p-nitrophenol preincubated for 15 mins followed by substrate addition measured after 15 mins.

Some results are limits rather than exact numbers.

On to `O=c1cc(O)cc2oc(-c3ccc(O)cc3)c(O[C@@H]3O[C@H](CO)[C@@H](O)[C@H](O)[C@H]3O)c(O)c1-2` [3,4',5,7-Tetrahydroxyflavone-3-glucoside], for which the concentration for half-maximal inhibition (IC50) was greater than 70 µM. The figure for `O=c1cc(O)cc2oc(-c3ccc(O)c(O)c3)c(O[C@@H]3O[C@H](CO)[C@@H](O)[C@H](O)[C@H]3O)c(O)c1-2` [Quercetin 3-O-beta-D-glucoside] is greater than 70 µM.
